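All cell lines were grown in 96-well plates and treated with compound for 48 hours. Definition used: TGI = concentration required for complete inhibition of growth.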
Experiments:
Assay in all cases: inhibition of tumour cell growth, NCI panel, 48 h
[1] = tested on: OVCAR-4 ovarian
[2] = tested on: NCI-H522 lung
[3] = tested on: HOP-92 NSCLC
[4] = tested on: NCI-H226 lung
[5] = tested on: OVCAR-8 ovarian
[6] = tested on: LOX IMVI melanoma
[7] = tested on: SK-OV-3 ovarian
[8] = tested on: NCI-H23 lung

## O=C(Nc1ccc2cc3ccccc3cc2c1)c1cc2c(cc1Cl)Sc1nccn1S2(=O)=O
[1]
  TGI: > 100 µM
[2]
  TGI: > 100 µM
[3]
  TGI: > 100 µM
[4]
  TGI: > 100 µM
[5]
  TGI: > 100 µM
[6]
  TGI: > 100 µM
[7]
  TGI: > 100 µM
[8]
  TGI: > 100 µM

## N#Cc1c(-c2ccccc2)cc(Nc2ccc(Cl)cc2)n2c1nc1ccccc12
[1]
  TGI: > 100 µM
[2]
  TGI: 11.6 µM
[3]
  TGI: 4.63 µM
[4]
  TGI: > 100 µM
[5]
  TGI: > 57 µM
[6]
  TGI: > 100 µM
[7]
  TGI: > 30.4 µM
[8]
  TGI: > 100 µM

## COc1ccc2c(c1OC)C(=O)O[C@@H]2[C@H]1c2c(cc3c(c2OC)OCO3)CCN1C
[1]
  TGI: > 100 µM
[2]
  TGI: > 100 µM
[3]
  TGI: > 100 µM
[4]
  TGI: > 100 µM
[5]
  TGI: > 100 µM
[6]
  TGI: > 100 µM
[7]
  TGI: > 100 µM
[8]
  TGI: > 100 µM

## COCOc1cc(OC)ccc1C/C(=N/O)C(=O)OC
[1]
  TGI: > 100 µM
[2]
  TGI: > 100 µM
[4]
  TGI: > 100 µM
[5]
  TGI: > 100 µM
[6]
  TGI: > 100 µM
[7]
  TGI: > 100 µM
[8]
  TGI: > 100 µM

## CC(=O)NC1(C)C(C)C2CC1C(C)C2(C)C (stereo unspecified)
[1]
  TGI: > 100 µM
[2]
  TGI: > 100 µM
[3]
  TGI: > 100 µM
[4]
  TGI: > 100 µM
[5]
  TGI: > 100 µM
[7]
  TGI: > 100 µM
[8]
  TGI: > 100 µM

## O=[N+]([O-])C(C(Cl)=C(Cl)Cl)=C(n1cncn1)n1cncn1
[1]
  TGI: 57 µM
[2]
  TGI: 28.7 µM
[4]
  TGI: > 100 µM
[5]
  TGI: 44.2 µM
[6]
  TGI: 44.9 µM
[7]
  TGI: > 100 µM
[8]
  TGI: 54.2 µM

## O=C1C(Cl)=C(NCCF)C(=O)c2ncccc21
[4]
  TGI: 3.99 µM
[5]
  TGI: 4.55 µM
[6]
  TGI: 2.26 µM
[7]
  TGI: 3.74 µM
[8]
  TGI: 3.51 µM

## Cc1cn(C2OC(CO)C(O)C2F)c(=O)[nH]c1=O (stereo unspecified)
[1]
  TGI: > 100 µM
[2]
  TGI: > 100 µM
[3]
  TGI: > 100 µM
[4]
  TGI: > 100 µM
[5]
  TGI: > 100 µM
[6]
  TGI: > 100 µM
[7]
  TGI: > 100 µM
[8]
  TGI: > 100 µM

## COc1ccc(CCN2C(=O)CC34C=CC(CC3C2=O)O4)cc1OC (stereo unspecified)
[1]
  TGI: > 100 µM
[3]
  TGI: > 100 µM
[5]
  TGI: > 100 µM
[6]
  TGI: > 100 µM
[7]
  TGI: > 100 µM
[8]
  TGI: > 100 µM

## Cc1nc(Nc2ccc(Cl)c(Cl)c2)sc1C(=O)/C=C/c1ccc2c(c1)OCO2
[1]
  TGI: 33.9 µM
[4]
  TGI: 62 µM
[5]
  TGI: 49.6 µM
[6]
  TGI: 35.3 µM
[7]
  TGI: 33.6 µM
[8]
  TGI: 49.5 µM

## C[n+]1ccccc1/C1=c2\cc/c([nH]2)=C(\c2cccc[n+]2C)C2=N/C(=C(/c3cccc[n+]3C)C3C=CC(N3)/C(c3cccc[n+]3C)=C3/C=CC1=N3)C=C2
[1]
  TGI: > 100 µM
[2]
  TGI: > 100 µM
[3]
  TGI: > 100 µM
[4]
  TGI: > 100 µM
[5]
  TGI: > 100 µM
[6]
  TGI: > 100 µM
[7]
  TGI: > 100 µM
[8]
  TGI: > 100 µM

## O=C(C1OC1c1cccc([N+](=O)[O-])c1)C12CC3CC(CC(C3)C1)C2 (stereo unspecified)
[1]
  TGI: 15.4 µM
[2]
  TGI: 9.76 µM
[3]
  TGI: 25.3 µM
[4]
  TGI: 25.9 µM
[5]
  TGI: 5.92 µM
[6]
  TGI: 3.84 µM
[7]
  TGI: 31.6 µM
[8]
  TGI: 17.7 µM

## O=c1[nH]c(=O)n([C@@H]2O[C@H](CO)[C@@H](O)[C@@H]2F)cc1I
[1]
  TGI: > 100 µM
[2]
  TGI: > 100 µM
[3]
  TGI: > 100 µM
[4]
  TGI: > 100 µM
[5]
  TGI: > 100 µM
[6]
  TGI: > 100 µM
[7]
  TGI: > 100 µM
[8]
  TGI: > 100 µM

## O=C1/C(=C/c2ccccc2)CCCc2ccccc21
[1]
  TGI: 32 µM
[2]
  TGI: 51.6 µM
[3]
  TGI: 32.9 µM
[4]
  TGI: 36.6 µM
[5]
  TGI: 45.5 µM
[6]
  TGI: 34.9 µM
[7]
  TGI: > 100 µM
[8]
  TGI: 34.2 µM

## COc1cc(OC)c(C2(c3c(OC(C)C)c(=O)c3=O)SCCCS2)cc1OC
[1]
  TGI: > 100 µM
[2]
  TGI: > 100 µM
[3]
  TGI: > 100 µM
[4]
  TGI: > 100 µM
[5]
  TGI: > 100 µM
[6]
  TGI: > 100 µM
[7]
  TGI: > 100 µM
[8]
  TGI: > 100 µM

## COC(=O)[C@H](Cc1c[nH]c2ccccc12)NC(=O)c1ccccc1I
[1]
  TGI: > 100 µM
[2]
  TGI: 30.9 µM
[3]
  TGI: 35.2 µM
[4]
  TGI: 82.2 µM
[5]
  TGI: > 100 µM
[6]
  TGI: 44.8 µM
[7]
  TGI: > 100 µM

## CC(=O)n1nc(-c2ccc3ccccc3c2)nc1C
[1]
  TGI: > 100 µM
[2]
  TGI: > 100 µM
[5]
  TGI: > 100 µM
[6]
  TGI: > 100 µM
[7]
  TGI: > 100 µM

## CN(C)N=Nc1ccc2[nH]c(=O)[nH]c2c1
[1]
  TGI: > 100 µM
[2]
  TGI: > 100 µM
[4]
  TGI: > 100 µM
[5]
  TGI: > 100 µM
[6]
  TGI: > 100 µM
[7]
  TGI: > 100 µM
[8]
  TGI: > 100 µM

## CCC(=O)Nc1ccc(NCC(=O)Nc2ccc(OC)cc2)cc1
[1]
  TGI: 35.2 µM
[2]
  TGI: 29.5 µM
[3]
  TGI: 66.3 µM
[4]
  TGI: 37.7 µM
[5]
  TGI: 42.8 µM
[6]
  TGI: 39.3 µM
[7]
  TGI: 95.3 µM
[8]
  TGI: 41.8 µM

## CCOC(=O)c1nc2cc(C(F)(F)F)ccc2nc1Oc1ccc(F)cc1
[1]
  TGI: > 100 µM
[2]
  TGI: > 100 µM
[3]
  TGI: > 100 µM
[4]
  TGI: > 100 µM
[5]
  TGI: > 100 µM
[6]
  TGI: > 100 µM

## Cc1ccc(S(=O)(=O)NC(=O)NC(CCC(N)=O)C(=O)O)cc1 (stereo unspecified)
[1]
  TGI: > 100 µM
[2]
  TGI: > 100 µM
[3]
  TGI: > 100 µM
[5]
  TGI: > 100 µM
[6]
  TGI: > 100 µM
[7]
  TGI: > 100 µM
[8]
  TGI: > 100 µM

## COC(=O)C1(O)C(c2ccccc2)NC2(C)CCCC21 (stereo unspecified)
[1]
  TGI: > 100 µM
[2]
  TGI: > 100 µM
[4]
  TGI: > 100 µM
[5]
  TGI: > 100 µM
[6]
  TGI: > 100 µM
[7]
  TGI: > 100 µM
[8]
  TGI: > 100 µM

## COc1cccc2cc(C(=O)NC34CC5CC(CC(C5)C3)C4)c(=N)oc12
[1]
  TGI: > 100 µM
[2]
  TGI: > 88.7 µM
[3]
  TGI: > 55 µM
[4]
  TGI: > 100 µM
[5]
  TGI: > 50.6 µM
[6]
  TGI: > 100 µM
[7]
  TGI: > 100 µM
[8]
  TGI: > 100 µM

## CN(C)c1ccc(/C=C(\NC(=O)c2ccccc2)C(=O)NC(Cc2c[nH]c3ccccc23)C(=O)O)cc1 (stereo unspecified)
[1]
  TGI: > 100 µM
[2]
  TGI: > 100 µM
[3]
  TGI: > 100 µM
[4]
  TGI: > 100 µM
[5]
  TGI: > 100 µM
[6]
  TGI: > 100 µM
[7]
  TGI: > 100 µM
[8]
  TGI: > 100 µM

## O=c1c2c3c(sc2nc2n1N=CN(c1ccc(F)cc1)C2)CCCC3
[1]
  TGI: > 100 µM
[2]
  TGI: > 100 µM
[3]
  TGI: > 100 µM
[4]
  TGI: > 100 µM
[5]
  TGI: > 100 µM
[6]
  TGI: > 100 µM
[7]
  TGI: > 100 µM
[8]
  TGI: > 100 µM

— PubChem BioAssay (NCI)
